Source: patent US11945794B2, “Nuclear transport modulators and uses thereof” (Karyopharm Therapeutics Inc., priority 2013, dated 2024)
pIC50: −log10 of the molar value.

Key:
COLO 205 xenograft = assay: COLO 205 colorectal carcinoma xenograft model; format: in vivo, mouse
Procedure: COLO 205 (CCL-222) colorectal cancer cells were obtained from ATCC. These cells were grown in RPMI-1640 medium supplemented with 10% fetal bovine serum, 1% penicillin and streptomycin. Cells were sub-cultured by transferring floating cells to a new flask and trypsinizing adherent cells before sub-culturing at a ratio of 1:4. COLO 205 cells were harvested by centrifugation and counted using a hemocytometer. Cells were resuspended in PBS at a concentration of 5×10^7 cells per mL. Cells were placed on ice, and then mixed with an equal volume of Matrigel™ (BD Biosciences CB-40234). This mixture was kept on ice and injected into the left flank of mice in a volume of 0.2 mL, equivalent to 5×10^6 cells per mouse. Thirty-two (32) SCID mice were inoculated subcutaneously in the left flank with 5×10^6 COLO 205 cells. Treatment was initiated when the tumors reached a mean volume of 103.7 mm^3 (standard deviation±30 mm^3, range 17-183 mm^3). Mice were allocated to four (4) groups of eight (8) mice such that mean tumor volume in each group was within the range of 95 to 104 mm^3. […] With the exception of 5-FU (which was given IP on days 1 and 3), all compounds were given by oral gavage. […] Animal weights and conditions were recorded daily, and tumors were measured on Mondays, Wednesdays and Fridays.

CRM1 = biological target: T1, CRM1 (Homo sapiens, UniProt O14980); assay: Washout assay in U2OS Rev-GFP cells; format: cell-based; details: 24 hour washout versus no washout
T1 construct: endogenous in cells; host or cells: U2OS cells stably expressing Rev-GFP
T1 sequence (O14980 whole entry): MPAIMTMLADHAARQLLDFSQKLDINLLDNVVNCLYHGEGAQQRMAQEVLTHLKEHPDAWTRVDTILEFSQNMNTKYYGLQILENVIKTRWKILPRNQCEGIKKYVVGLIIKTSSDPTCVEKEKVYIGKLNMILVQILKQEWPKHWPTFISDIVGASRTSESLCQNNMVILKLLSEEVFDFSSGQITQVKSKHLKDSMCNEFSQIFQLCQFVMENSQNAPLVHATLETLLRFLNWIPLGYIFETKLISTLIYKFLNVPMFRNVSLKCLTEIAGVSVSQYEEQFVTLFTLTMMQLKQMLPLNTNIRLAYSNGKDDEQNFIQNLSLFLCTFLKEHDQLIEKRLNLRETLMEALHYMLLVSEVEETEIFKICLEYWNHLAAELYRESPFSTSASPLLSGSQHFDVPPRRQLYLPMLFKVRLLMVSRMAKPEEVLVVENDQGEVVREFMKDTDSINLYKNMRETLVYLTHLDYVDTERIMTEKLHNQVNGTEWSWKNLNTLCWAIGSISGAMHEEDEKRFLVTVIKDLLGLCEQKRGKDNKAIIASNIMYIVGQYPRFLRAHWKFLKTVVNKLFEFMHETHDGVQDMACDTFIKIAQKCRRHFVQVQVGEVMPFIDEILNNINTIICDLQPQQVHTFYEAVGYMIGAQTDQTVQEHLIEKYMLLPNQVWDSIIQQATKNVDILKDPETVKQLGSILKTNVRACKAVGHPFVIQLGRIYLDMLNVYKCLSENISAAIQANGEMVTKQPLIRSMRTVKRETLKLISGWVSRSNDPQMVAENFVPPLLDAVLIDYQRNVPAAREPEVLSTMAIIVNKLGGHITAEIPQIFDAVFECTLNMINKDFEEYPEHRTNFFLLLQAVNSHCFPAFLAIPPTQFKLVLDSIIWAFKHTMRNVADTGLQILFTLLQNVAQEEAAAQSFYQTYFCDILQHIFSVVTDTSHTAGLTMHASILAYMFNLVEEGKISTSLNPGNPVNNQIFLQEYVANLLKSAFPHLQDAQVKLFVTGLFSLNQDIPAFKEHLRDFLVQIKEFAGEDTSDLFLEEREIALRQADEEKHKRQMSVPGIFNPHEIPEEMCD
Procedure: After 4 hours, one of the plates was fixed with PFA (no washout, condition A). […] A second plate was fixed with PFA after a 4 hour washout (4 hr washout, condition B) and a third plate was fixed with PFA after a 24 hour washout (24 h washout, condition C). Cells were counterstained with the nuclear dye DAPI.

U251MG spheroids = assay: Glioblastoma spheroid assay; format: cell-based; details: 1 μM, U251MG spheroids in Matrigel, compared with control
Procedure: (§1) Cells (U87MG and U251MG) were detached and re-suspended at 1×10^5 cells/mL. 5,000 cells were loaded into a hanging drop plate (3D Biomatrix Cat. No.: HDP1096) and incubated for 5 days (37° C.; 5% CO2) to form spheroids. 300 μL of Matrix Gel (Corning Matrigel Cat #354234; Lot #3330622) were plated per well in a 24-well plate and incubated for 30 minutes. Spheroids were removed from the hanging drop plate and seeded into the […]™ (1 spheroid per well). Spheroids were incubated for 15 minutes and then 460 μL media was added. […] The plates were analyzed at several time points using 40× and 20× phase microscopes, and photos of the spheroids were taken.

U87MG spheroids = assay: Glioblastoma spheroid assay; format: cell-based; details: 1 μM, U87MG spheroids in Matrigel, compared with control
Procedure: as §1

3T3 cells = assay: MTT cell proliferation assay; format: cell-based; details: Mus musculus, NIH3T3, approximately 64-72 hours
Summary of the method: (§2)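 Cells seeded at 5,000-10,000 per well attached overnight, then received eight compound concentrations from 1 nM to 30 μM. Viability was measured by MTT (about 4 h) with OD read at 490 nm. Percent inhibition versus negative control, mostly from duplicates, was reported as mean±SE.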

Z138 cells = assay: MTT cell proliferation assay; format: cell-based; details: Homo sapiens, Z-138, approximately 64-72 hours
Summary of the method: as §2

MM1S cells = assay: MTT cell proliferation assay; format: cell-based; details: Homo sapiens, MM1.S, approximately 64-72 hours
Summary of the method: as §2

Z-138 xenograft = assay: Z-138 mantle cell lymphoma xenograft model; format: in vivo, mouse
Procedure: Z-138 (ATCC #CRL-3001) mantle cell lymphoma cells were obtained from ATCC. These cells were grown in IMEM medium supplemented with 10% horse serum, 1% penicillin and streptomycin, and 2 mM L-glutamine. Cells were sub-cultured by dilution at a ratio of 1:5 to 1:10. Z-138 cells were harvested by centrifugation and counted using a hemocytometer. Cells were resuspended in PBS at a concentration of 2×10^8 cells per mL. Cells were placed on ice and mixed with an equal volume of Matrigel (BD Biosciences CB-40234). This mixture was kept on ice and injected into the left flank of mice in a volume of 0.2 mL, equivalent to 2×10^7 cells per mouse. Thirty-two (32) CB-17 SCID mice were inoculated subcutaneously in the left flank with 2×10^7 Z-138 cells. Treatment was initiated when the tumors reached a mean volume of 125.2 mm^3. Mice were allocated to four (4) groups of eight (8) mice such that mean tumor volume in each group was within the range of 106.5 to 138.8 mm^3. […] Animal weights and conditions were recorded daily, and tumors were measured on Mondays, Wednesdays and Fridays.

decrease in effectiveness after a 24 hour washout (CRM1): 6 fold
pIC50 (MM1S cells): > 7.00
SMILES: NC(=O)/C(=C/n1cnc(-c2cc(C(F)(F)F)cc(C(F)(F)F)c2)n1)c1cncnc1 [Compound 124, (E)-3-(3-(3,5-bis(trifluoromethyl)phenyl)-1H-1,2,4-triazol-1-yl)-2-(pyrimidin-5-yl)acrylamide]
mean tumor volume (COLO 205 xenograft; 5 or 15 mg/kg PO daily, SCID mice, compared to vehicle): mean tumor volume was reduced
mean tumor volume compared with standard of care (COLO 205 xenograft; particularly 15 mg/kg PO daily, versus 5-FU): compared favorably
spheroid cell growth (U251MG spheroids): shrinking of the spheroid with complete elimination of any cell growth out of the sphere
spheroid cell growth (U87MG spheroids): significant reduction in cell growth
pIC50 (3T3 cells): 4.52 to 5.30
pIC50 (Z138 cells): > 7.00
mean tumor volume compared with standard of care (Z-138 xenograft; 15 mg/kg PO daily, versus cyclophosphamide): compared favorably
mean tumor volume (Z-138 xenograft; 5 or 15 mg/kg PO daily, CB-17 SCID mice, compared to vehicle): mean tumor volume was reduced
